# From patent US10370343B2, “[6,6] Fused bicyclic HDAC8 inhibitors” (FORMA Therapeutics, Inc., priority 2015, dated 2019)
# Key:
# [1] = molecular target: T1, Full length human recombinant HDAC8 protein (Homo sapiens, UniProt Q9BY41); experiment: In vitro histone deacetylase assay: enzymatic HDAC8 electrophoretic mobility shift assay; assay type: biochemical; conditions: electrophoretic mobility shift assay; enzyme 1 nM; 2 μM fluorescently labeled peptide substrate RHKK(Ac)-NH2; 25° C.; 12 concentrations; read-out: HDAC8 IC50
# T1 construct: Full length human recombinant HDAC8 protein was expressed in baculoviral system; made in house
# T1 sequence (Q9BY41 1-377): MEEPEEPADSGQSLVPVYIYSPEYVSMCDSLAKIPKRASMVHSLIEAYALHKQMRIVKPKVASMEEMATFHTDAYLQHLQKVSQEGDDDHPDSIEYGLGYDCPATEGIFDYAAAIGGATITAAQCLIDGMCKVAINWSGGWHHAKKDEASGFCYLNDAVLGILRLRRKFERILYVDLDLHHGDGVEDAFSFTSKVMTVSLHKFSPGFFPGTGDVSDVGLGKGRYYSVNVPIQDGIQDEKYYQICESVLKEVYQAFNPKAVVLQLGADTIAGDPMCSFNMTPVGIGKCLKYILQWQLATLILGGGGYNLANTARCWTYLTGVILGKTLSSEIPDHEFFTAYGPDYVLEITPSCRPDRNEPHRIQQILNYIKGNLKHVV
# [2] = molecular target: T2, Recombinant N-terminal GST tag full-length human HDAC8 (Homo sapiens, UniProt Q9BY41); experiment: HDAC8 probe binding assay, time resolved fluorescence (TRF) format; conditions: compounds grouped by IC50 range (Table 2)
# T2 construct: Recombinant N-terminal GST tag full-length human HDAC8; purchased SignalChem H90-30G-1000; host or cells: baculovirus in Sf9 insect cells
# T2 sequence (Q9BY41 1-377): T1 sequence (Q9BY41 1-377)
# Outline: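 IC50 values come from four-parameter logistic fits of percent inhibition, scaled between DMSO (high) and no-enzyme (low) controls. Time-resolved fluorescence (ex 340, em 485/535 nm) was read after 16 h at room temperature. Enzyme was Sf9-expressed full-length human HDAC8 with an N-terminal GST tag, in a probe-binding format.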
SMILES,IC50 [1] [nM],IC50 [2] [nM]
"COc1ccc(CN2C(=O)COc3ccc(C(=O)NO)cc32)c(Cl)c1 [Compound I-242, 4-(2-chloro-4-methoxybenzyl)-N-hydroxy-3-oxo-3,4-dihydro-2H-benzo[b][1,4]oxazine-6-carboxamide]",< 25,≤ 25
"O=C(NO)c1ccc2c(c1)N(Cc1nc3cc(F)ccc3o1)C(=O)CO2 [Compound I-217, 4-((5-fluorobenzo[d]oxazol-2-yl)methyl)-N-hydroxy-3-oxo-3,4-dihydro-2H-benzo[b][1,4]oxazine-6-carboxamide]",< 25,≤ 25
"COc1ccc(CN2C(=O)COc3ccc(C(=O)NO)cc32)cc1F [Compound I-245, 4-(3-fluoro-4-methoxybenzyl)-N-hydroxy-3-oxo-3,4-dihydro-2H-benzo[b][1,4]oxazine-6-carboxamide]",< 25,≤ 25
"Cc1cccc(CN2C(=O)COc3ccc(C(=O)NO)cc32)c1 [Compound I-68, N-hydroxy-4-(3-methylbenzyl)-3-oxo-3,4-dihydro-2H-benzo[b][1,4]oxazine-6-carboxamide]",25 to 100,≤ 25
"O=C(NO)c1ccc2c(c1)N(Cc1cc(F)ccc1C(F)(F)F)C(=O)CO2 [Compound I-268, 4-(5-fluoro-2-(trifluoromethyl)benzyl)-N-hydroxy-3-oxo-3,4-dihydro-2H-benzo[b][1,4]oxazine-6-carboxamide]",25 to 100,25 to 100
"Cc1ccc(CN2C(=O)COc3ccc(C(=O)NO)cc32)c(C)c1 [Compound I-280, 4-(2,4-dimethylbenzyl)-N-hydroxy-3-oxo-3,4-dihydro-2H-benzo[b][1,4]oxazine-6-carboxamide]",25 to 100,≤ 25
"O=C(NO)c1ccc2c(c1)N(Cc1cccc(Cl)c1)C(=O)CO2 [Compound I-143, 4-(3-chlorobenzyl)-N-hydroxy-3-oxo-3,4-dihydro-2H-benzo[b][1,4]oxazine-6-carboxamide]",< 25,≤ 25
"CC1(C)Oc2ccc(C(=O)NO)cc2N(Cc2nc3cc(Cl)ccc3s2)C1=O [Compound I-296, 4-((5-chlorobenzo[d]thiazol-2-yl)methyl)-N-hydroxy-2,2-dimethyl-3-oxo-3,4-dihydro-2H-benzo[b][1,4]oxazine-6-carboxamide]",< 25,25 to 100
"O=C(NO)c1ccc2c(c1)N(Cc1ccccc1Cl)C(=O)CO2 [Compound I-147, 4-(2-chlorobenzyl)-N-hydroxy-3-oxo-3,4-dihydro-2H-benzo[b][1,4]oxazine-6-carboxamide]",< 25,25 to 100
"O=C(NO)c1ccc2c(c1)N(Cc1ccccc1F)CCO2 [Compound I-27, 4-(2-fluorobenzyl)-N-hydroxy-3,4-dihydro-2H-benzo[b][1,4]oxazine-6-carboxamide]",< 25,25 to 100
"O=C(NO)c1ccc2c(c1)N(Cc1nc3ccc(F)cc3o1)C(=O)CO2 [Compound I-218, 4-((6-fluorobenzo[d]oxazol-2-yl)methyl)-N-hydroxy-3-oxo-3,4-dihydro-2H-benzo[b][1,4]oxazine-6-carboxamide]",< 25,≤ 25
"O=C(NO)c1ccc2c(c1)N(Cc1csc(C3CC3)n1)CCO2 [Compound I-20, 4-((2-cyclopropylthiazol-4-yl)methyl)-N-hydroxy-3,4-dihydro-2H-benzo[b][1,4]oxazine-6-carboxamide]",100 to 1000,> 1000
"O=C(NO)c1ccc2c(c1)N(Cc1c(F)cccc1C(F)(F)F)C(=O)CO2 [Compound I-275, 4-(2-fluoro-6-(trifluoromethyl)benzyl)-N-hydroxy-3-oxo-3,4-dihydro-2H-benzo[b][1,4]oxazine-6-carboxamide]",25 to 100,25 to 100
"Cc1ccc2nc(CN3C(=O)C(C)(C)Oc4ccc(C(=O)NO)cc43)oc2c1 [Compound I-292, N-hydroxy-2,2-dimethyl-4-((6-methylbenzo[d]oxazol-2-yl)methyl)-3-oxo-3,4-dihydro-2H-benzo[b][1,4]oxazine-6-carboxamide]",25 to 100,25 to 100
